According to the CheMixHub ionic liquid set:
Values joined by “and” are separate entries in the source; they are usually repeats but may differ in a detail not shown here. Equal entries are not always repeated.

Assay: xn = mol fraction of the nth substance listed

CCCC[N+]1(C)CCCC1.N#C[C-](C#N)C#N + O
100 kPa
Conditions | electrical conductivity [S/m] | viscosity [mPa·s]
288.15 K, x2 = 0.0718 | 0.723 | 40.02
288.15 K, x2 = 0.1358 | 0.799 | 35.64
288.15 K, x2 = 0.1942 | 0.872 | 32.15
288.15 K, x2 = 0.2886 | 0.993 | 27.21
288.15 K, x2 = 0.3569 | 1.09 | 24.1
288.15 K, x2 = 0.431 | 1.21 | 21.17
288.15 K, x2 = 0.5238 | 1.38 | 17.74
288.15 K, x2 = 0.6162 | 1.55 | 15
288.15 K, x2 = 0.7143 | 1.8 | 12.05
288.15 K, x2 = 0.7708 | 1.9 | 10.98
293.15 K, x2 = 0.0718 | 0.882 | 32.78
293.15 K, x2 = 0.1358 | 0.957 | 29.3
293.15 K, x2 = 0.1942 | 1.04 | 26.51
293.15 K, x2 = 0.2886 | 1.18 | 22.51
293.15 K, x2 = 0.3569 | 1.3 | 20
293.15 K, x2 = 0.431 | 1.44 | 17.55
293.15 K, x2 = 0.5238 | 1.63 | 14.75
293.15 K, x2 = 0.6162 | 1.86 | 12.41
293.15 K, x2 = 0.7143 | 2.14 | 9.96
293.15 K, x2 = 0.7708 | 2.26 | 9.06
298.15 K, x2 = 0.0718 | 1.05 | 27.26
298.15 K, x2 = 0.1358 | 1.13 | 24.45
298.15 K, x2 = 0.1942 | 1.23 | 22.18
298.15 K, x2 = 0.2886 | 1.39 | 18.9
298.15 K, x2 = 0.3569 | 1.52 | 16.78
298.15 K, x2 = 0.431 | 1.69 | 14.76
298.15 K, x2 = 0.5238 | 1.92 | 12.43
298.15 K, x2 = 0.6162 | 2.18 | 10.42
298.15 K, x2 = 0.7143 | 2.52 | 8.36
298.15 K, x2 = 0.7708 | 2.67 | 7.58
303.15 K, x2 = 0.0718 | 1.22 | 22.88
303.15 K, x2 = 0.1358 | 1.32 | 20.68
303.15 K, x2 = 0.1942 | 1.43 | 18.8
303.15 K, x2 = 0.2886 | 1.61 | 16.06
303.15 K, x2 = 0.3569 | 1.76 | 14.28
303.15 K, x2 = 0.431 | 1.96 | 12.58
303.15 K, x2 = 0.5238 | 2.22 | 10.62
303.15 K, x2 = 0.6162 | 2.52 | 8.87
303.15 K, x2 = 0.7143 | 2.93 | 7.1
303.15 K, x2 = 0.7708 | 3.09 | 6.47
308.15 K, x2 = 0.0718 | 1.42 | 19.58
308.15 K, x2 = 0.1358 | 1.53 | 17.69
308.15 K, x2 = 0.1942 | 1.65 | 16.13
308.15 K, x2 = 0.2886 | 1.85 | 13.82
308.15 K, x2 = 0.3569 | 2.03 | 12.3
308.15 K, x2 = 0.431 | 2.22 | 10.84
308.15 K, x2 = 0.5238 | 2.56 | 9.18
308.15 K, x2 = 0.6162 | 2.9 | 7.65
308.15 K, x2 = 0.7143 | 3.35 | 6.11
308.15 K, x2 = 0.7708 | 3.54 | 5.56
313.15 K, x2 = 0.0718 | 1.62 | 16.87
313.15 K, x2 = 0.1358 | 1.74 | 15.26
313.15 K, x2 = 0.1942 | 1.87 | 13.96
313.15 K, x2 = 0.2886 | 2.11 | 12
313.15 K, x2 = 0.3569 | 2.3 | 10.7
313.15 K, x2 = 0.431 | 2.54 | 9.44
313.15 K, x2 = 0.5238 | 2.89 | 8.02
313.15 K, x2 = 0.6162 | 3.28 | 6.68
313.15 K, x2 = 0.7143 | 3.81 | 5.31
313.15 K, x2 = 0.7708 | 4.02 | 4.83
318.15 K, x2 = 0.0718 | 1.84 | 14.68
318.15 K, x2 = 0.1358 | 1.97 | 13.34
318.15 K, x2 = 0.1942 | 2.12 | 12.27
318.15 K, x2 = 0.2886 | 2.37 | 10.52
318.15 K, x2 = 0.3569 | 2.6 | 9.39
318.15 K, x2 = 0.431 | 2.87 | 8.29
318.15 K, x2 = 0.5238 | 3.25 | 7.06
318.15 K, x2 = 0.6162 | 3.7 | 5.83
318.15 K, x2 = 0.7143 | 4.28 | 4.66
318.15 K, x2 = 0.7708 | 4.53 | 4.24
323.15 K, x2 = 0.0718 | 2.07 | 12.88
323.15 K, x2 = 0.1358 | 2.22 | 11.74
323.15 K, x2 = 0.1942 | 2.37 | 10.81
323.15 K, x2 = 0.2886 | 2.66 | 9.3
323.15 K, x2 = 0.3569 | 2.9 | 8.31
323.15 K, x2 = 0.431 | 3.19 | 7.34
323.15 K, x2 = 0.5238 | 3.63 | 6.28
323.15 K, x2 = 0.6162 | 4.12 | 5.16
323.15 K, x2 = 0.7143 | 4.78 | 4.13
323.15 K, x2 = 0.7708 | 5.06 | 3.75
328.15 K, x2 = 0.0718 | 2.31 | 11.39
328.15 K, x2 = 0.1358 | 2.48 | 10.41
328.15 K, x2 = 0.1942 | 2.65 | 9.6
328.15 K, x2 = 0.2886 | 2.96 | 8.28
328.15 K, x2 = 0.3569 | 3.21 | 7.41
328.15 K, x2 = 0.431 | 3.54 | 6.56
328.15 K, x2 = 0.5238 | 4.02 | 5.63
328.15 K, x2 = 0.6162 | 4.57 | 4.61
328.15 K, x2 = 0.7143 | 5.29 | 3.68
328.15 K, x2 = 0.7708 | 5.61 | 3.35
333.15 K, x2 = 0.0718 | 2.58 | 10.14
333.15 K, x2 = 0.1358 | 2.75 | 9.29
333.15 K, x2 = 0.1942 | 2.93 | 8.58
333.15 K, x2 = 0.2886 | 3.27 | 7.42
333.15 K, x2 = 0.3569 | 3.54 | 6.65
333.15 K, x2 = 0.431 | 3.91 | 5.89
333.15 K, x2 = 0.5238 | 4.43 | 5.07
333.15 K, x2 = 0.6162 | 5.01 | 4.15
333.15 K, x2 = 0.7143 | 5.83 | 3.3
333.15 K, x2 = 0.7708 | 6.17 | 3.01

CCCCn1cc[n+](C)c1C.C[C@@H](O)[C@H](N)C(=O)[O-] + O
100 kPa
Conditions | viscosity [mPa·s]
288.15 K, x1 = 0.4927 | 331
293.15 K, x1 = 0.2985 | 102
293.15 K, x1 = 0.7003 | 447
298.15 K, x1 = 0.7003 | 307
298.15 K, x1 = 0.8001 | 402
308.15 K, x1 = 0.1919 | 24.8
308.15 K, x1 = 0.4004 | 63
308.15 K, x1 = 0.599 | 122
308.15 K, x1 = 0.8001 | 199
313.15 K, x1 = 0.2985 | 26.1
313.15 K, x1 = 0.599 | 78
318.15 K, x1 = 0.2985 | 21.5
318.15 K, x1 = 0.4004 | 33.1
318.15 K, x1 = 0.4927 | 45.9
318.15 K, x1 = 0.7003 | 77
318.15 K, x1 = 0.8001 | 92

CC[NH3+].O=[N+]([O-])[O-] + O
Conditions | viscosity
288.15 K, 101.33 kPa, x2 = 0.574 | 5.43 mPa·s and 7.928 mPa·s
293.15 K, 100 kPa, x2 = 0.1088 | 20.97 mPa·s
293.15 K, 100 kPa, x2 = 0.3682 | 7.63 mPa·s
293.15 K, 100 kPa, x2 = 0.47 | 6.34 mPa·s
293.15 K, 100 kPa, x2 = 0.579 | 5.03 mPa·s
293.15 K, 101.33 kPa, x2 = 0.574 | 4.86 mPa·s and 7.175 mPa·s
298 K, 101 kPa, x2 = 0.7 | 3.42 mPa·s
298 K, 101 kPa, x2 = 0.95 | 1.15 mPa·s
298.15 K, 100 kPa, x2 = 0.7889 | 2.16 mPa·s
298.15 K, 100 kPa, x2 = 0.8895 | 1.48 mPa·s
298.15 K, 101.33 kPa, x2 = 0.574 | 4.415 mPa·s and 6.559 mPa·s
303.15 K, 100 kPa, x2 = 0.1088 | 15.74 mPa·s
303.15 K, 100 kPa, x2 = 0.2597 | 7.78 mPa·s
303.15 K, 100 kPa, x2 = 0.7889 | 1.95 mPa·s
303.15 K, 100 kPa, x2 = 0.8895 | 1.34 mPa·s
303.15 K, 101.33 kPa, x2 = 0.574 | 3.953 mPa·s and 5.989 mPa·s
308.15 K, 100 kPa, x2 = 0.1088 | 13.76 mPa·s
308.15 K, 100 kPa, x2 = 0.47 | 4.52 mPa·s
308.15 K, 101.33 kPa, x2 = 0.574 | 3.571 mPa·s and 5.567 mPa·s
313.15 K, 100 kPa, x2 = 0 | 22.67 mPa·s
313.15 K, 100 kPa, x2 = 0.579 | 3.26 mPa·s
313.15 K, 101.33 kPa, x2 = 0.574 | 3.247 mPa·s and 5.268 mPa·s
318.15 K, 100 kPa, x2 = 0.47 | 3.71 mPa·s
318.15 K, 100 kPa, x2 = 0.7889 | 1.49 mPa·s
318.15 K, 101.33 kPa, x2 = 0.574 | 2.96 mPa·s and 4.826 mPa·s
323.15 K, 101.33 kPa, x2 = 0.574 | 2.709 mPa·s and 4.535 mPa·s
328.15 K, 101.33 kPa, x2 = 0.574 | 2.479 mPa·s and 4.213 mPa·s
333.15 K, 101.33 kPa, x2 = 0.574 | 2.281 mPa·s and 4.065 mPa·s
338.15 K, 101.33 kPa, x2 = 0.574 | 2.102 mPa·s and 3.912 mPa·s
343.15 K, 101.33 kPa, x2 = 0.574 | 1.945 mPa·s

CC[n+]1ccn(C)c1.N#C[S-] + O
100 kPa
Conditions | viscosity [mPa·s]
288.15 K, x2 = 0.9443 | 1.96
293.15 K, x2 = 0.1006 | 22.55
293.15 K, x2 = 0.7981 | 4.08
293.15 K, x2 = 0.9105 | 2.27
303.15 K, x2 = 0.1948 | 13.75
303.15 K, x2 = 0.4011 | 9.55
303.15 K, x2 = 0.6887 | 4.72
308.15 K, x2 = 0 | 16.39
308.15 K, x2 = 0.1948 | 12.02
308.15 K, x2 = 0.6043 | 5.31
308.15 K, x2 = 0.6887 | 4.19
313.15 K, x2 = 0.1006 | 12.15
313.15 K, x2 = 0.9105 | 1.44
313.15 K, x2 = 0.9506 | 1.07
318.15 K, x2 = 0 | 12.43
318.15 K, x2 = 0.1948 | 9.38
